From ChEMBL document CHEMBL6134802, “A benzoxazolyl urea inhibits VraS and enhances antimicrobials against vancomycin intermediate-resistant Staphylococcus aureus” (Bioorg Med Chem Lett, 2025) come the findings set out here.

Series [1] deals with Staphylococcus aureus. The series can be described thus: Antibacterial activity against vancomycin-intermediate resistant Staphylococcus aureus Mu50 assessed as enhancement factor at 50 uM in presence of penicillin G (reference value: 16 ug/ml). Type of series: functional.
Series [2] relates to Staphylococcus aureus. Briefly: Suppression of oxacillin-induced pbp2 gene transcription in vancomycin-intermediate resistant Staphylococcus aureus Mu50 assessed as decrease in pbp2 transcript level by RT-qPCR analysis. Format: functional, organism-based. On the technique in general: In qPCR the cycle at which signal appears reflects the starting amount.
In series [3] the target is T1, Sensor protein VraS (Staphylococcus aureus (strain N315)) (UniProt Q99SZ7).
T1 sequence (whole entry): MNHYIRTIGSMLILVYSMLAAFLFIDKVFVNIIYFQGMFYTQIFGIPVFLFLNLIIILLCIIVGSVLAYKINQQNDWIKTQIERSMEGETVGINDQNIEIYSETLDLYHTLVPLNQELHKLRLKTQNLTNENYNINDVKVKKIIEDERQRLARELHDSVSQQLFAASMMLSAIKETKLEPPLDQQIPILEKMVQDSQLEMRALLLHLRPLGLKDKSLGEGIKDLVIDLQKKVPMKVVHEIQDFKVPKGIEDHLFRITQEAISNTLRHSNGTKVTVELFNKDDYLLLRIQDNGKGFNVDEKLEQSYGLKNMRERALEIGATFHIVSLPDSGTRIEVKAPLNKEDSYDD
The series can be described thus: Inhibition of GST tagged VraS ATPase activity in vancomycin-intermediate resistant Staphylococcus aureus assessed as residual activity at 0.1 to 300 uM by kinase-coupled assay relative to control. The note with it: dose 0.1-300 µM.

Series [4] deals with Staphylococcus aureus. Briefly: Antibacterial activity against methicillin-resistant Staphylococcus aureus USA 300(BAA-1556) assessed as fold reduction in presence of vancomycin. Format: functional.
Series [5] relates to Staphylococcus aureus. Briefly: Antibacterial activity against methicillin-resistant Staphylococcus aureus BAA 41 assessed as enhancement factor at 50 uM in presence of vancomycin (reference value: 2 ug/ml). Format: functional.
Series [6] concerns Staphylococcus aureus. The series can be described thus: Antibacterial activity against methicillin-resistant Staphylococcus aureus BAA-1683 assessed as enhancement factor at 50 uM in presence of oxacillin (reference value: 32 ug/ml). Type of series: functional.
Series [7] deals with Staphylococcus aureus. Briefly: Antibacterial activity against methicillin-resistant Staphylococcus aureus USA 300 assessed as enhancement factor at 50 uM in presence of oxacillin (reference value: 16 ug/ml). Format: functional.
Series [8] has as its system Staphylococcus aureus. Briefly: Synergistic antibacterial activity against vancomycin-intermediate resistant Staphylococcus aureus Mu50 assessed as microbial growth at 50 uM in presence of oxacillin at 2 to 4 ug/ml by checkerboard assay. Format: functional, organism-based.
The test system of series [9] is Staphylococcus aureus. Briefly: Antibacterial activity against vancomycin-intermediate resistant Staphylococcus aureus Mu50 assessed as enhancement factor at 50 uM in presence of vancomycin (reference value: 4 ug/ml). Type of series: functional.
The test system of series [10] is Staphylococcus aureus. The series can be described thus: Synergistic antibacterial activity against vancomycin-intermediate resistant Staphylococcus aureus Mu50 assessed as microbial growth at 50 uM in presence of vancomycin at 0.125 ug/ml by checkerboard assay. Format: functional, organism-based.
For series [11], the system named is Staphylococcus aureus. The series can be described thus: Suppression of oxacillin-induced mecA gene transcription in vancomycin-intermediate resistant Staphylococcus aureus Mu50 assessed as decrease in mecA transcript level by RT-qPCR analysis. Type of series: functional, organism-based.
Series [12] relates to Staphylococcus aureus. Briefly: Antibacterial activity against methicillin-resistant Staphylococcus aureus BAA 41 assessed as enhancement factor at 50 uM in presence of oxacillin (reference value: 256 ug/ml). Type of series: functional.
The test system of series [13] is Staphylococcus aureus. The series can be described thus: Synergistic antibacterial activity against vancomycin-intermediate resistant Staphylococcus aureus Mu50 assessed as microbial growth at 50 uM in presence of penicillin G at 4 ug/ml by checkerboard assay. Type of series: functional, organism-based.
Series [14] deals with Staphylococcus aureus. Briefly: Antibacterial activity against methicillin-resistant Staphylococcus aureus BAA-2094 assessed as enhancement factor at 50 uM in presence of oxacillin (reference value: 8 to 16 ug/ml). Format: functional.
A short description of series [15]: Cytotoxicity against MDCK cells assessed as reduction in cell viability incubated for 24 hrs by MTT assay. Type of series: toxicity, cell-based, Canis lupus familiaris. The note with it: dog. On the technique in general: Tetrazolium dyes change colour on reduction, which living cells bring about.
The subject of series [16] is Staphylococcus aureus. Briefly: Suppression of oxacillin-induced vraSR gene transcription in vancomycin-intermediate resistant Staphylococcus aureus Mu50 assessed as decrease in vraSR transcript level by RT-qPCR analysis. Type of series: functional, organism-based.
Series [17] concerns Staphylococcus aureus. The series can be described thus: Synergistic antibacterial activity against vancomycin-intermediate resistant Staphylococcus aureus Mu50 assessed as fractional inhibitory concentration index at […] in presence of vancomycin by checkerboard assay. Type of series: functional.
The subject of series [18] is Staphylococcus aureus. The series can be described thus: Antibacterial activity against methicillin-resistant Staphylococcus aureus BAA-1683 assessed as enhancement factor at 50 uM in presence of vancomycin (reference value: 2 ug/ml). Type of series: functional.
Series [19] has as its system Staphylococcus aureus. The series can be described thus: Synergistic antibacterial activity against vancomycin-intermediate resistant Staphylococcus aureus Mu50 assessed as fractional inhibitory concentration index at >400 times MIC in presence of oxacillin by checkerboard assay. Format: functional.
Series [20] concerns Staphylococcus aureus. Briefly: Antibacterial activity against methicillin-resistant Staphylococcus aureus USA 300 assessed as enhancement factor at 50 uM in presence of penicillin G (reference value: 128 ug/ml). Type of series: functional.
Series [21] relates to Staphylococcus aureus. Briefly: Antibacterial activity against methicillin-resistant Staphylococcus aureus ATCC 33592 assessed as fold reduction at 50 uM in presence of vancomycin. Type of series: functional.
The test system of series [22] is Staphylococcus aureus. The series can be described thus: Antibacterial activity against methicillin-resistant Staphylococcus aureus BAA 42 assessed as enhancement factor at 50 uM in presence of vancomycin (reference value: 1 ug/ml). Type of series: functional.
Series [23] deals with Staphylococcus aureus. The series can be described thus: Suppression of vancomycin-induced vraSR gene transcription in vancomycin-intermediate resistant Staphylococcus aureus Mu50 assessed as decrease in vraSR transcript level by RT-qPCR analysis. Format: functional, organism-based.
In series [24] the test system is Staphylococcus aureus. The series can be described thus: Antibacterial activity against methicillin-resistant Staphylococcus aureus USA 300 assessed as enhancement factor at 50 uM in presence of vancomycin (reference value: 2 ug/ml). Type of series: functional.
Series [25] concerns Staphylococcus aureus. The series can be described thus: Antibacterial activity against methicillin-resistant Staphylococcus aureus USA 300 assessed as enhancement factor at 50 uM in presence of Chloramphenicol (reference value: 2 ug/ml). Type of series: functional.
Series [26] relates to Staphylococcus aureus. Briefly: Antibacterial activity against vancomycin-intermediate resistant Staphylococcus aureus Mu50 assessed as fold reduction at 50 uM in presence of oxacillin. Type of series: functional.
The subject of series [27] is Staphylococcus aureus. The series can be described thus: Antibacterial activity against vancomycin-intermediate resistant Staphylococcus aureus Mu50 assessed as fold reduction at 50 uM in presence of vancomycin. Type of series: functional.
Series [28] has as its system Staphylococcus aureus. The series can be described thus: Antibacterial activity against vancomycin-intermediate resistant Staphylococcus aureus Mu50 assessed as enhancement factor at 50 uM in presence of Chloramphenicol (reference value: 16 ug/ml). Type of series: functional.
The test system of series [29] is Staphylococcus aureus. The series can be described thus: Antibacterial activity against vancomycin-intermediate resistant Staphylococcus aureus Mu50 assessed as enhancement factor at 50 uM in presence of oxacillin (reference value: 256 ug/ml). Format: functional.
Series [30] deals with Staphylococcus aureus. The series can be described thus: Suppression of vancomycin-induced pbp2 gene transcription in vancomycin-intermediate resistant Staphylococcus aureus Mu50 assessed as decrease in pbp2 transcript level by RT-qPCR analysis. Format: functional, organism-based.
For series [31], the system named is Staphylococcus aureus. The series can be described thus: Antibacterial activity against methicillin-resistant Staphylococcus aureus ATCC 33592 assessed as enhancement factor at 50 uM in presence of vancomycin (reference value: 2 ug/ml). Type of series: functional.
Series [32] concerns Staphylococcus aureus. The series can be described thus: Antibacterial activity against methicillin-resistant Staphylococcus aureus BAA 42 assessed as enhancement factor at 50 uM in presence of oxacillin (reference value: 64 ug/ml). Type of series: functional.
Series [33] has as its system Staphylococcus aureus. The series can be described thus: Antibacterial activity against methicillin-resistant Staphylococcus aureus USA 300 assessed as fold reduction at 50 uM in presence of Chloramphenicol. Type of series: functional.
Series [34] relates to Staphylococcus aureus. Briefly: Antibacterial activity against methicillin-resistant Staphylococcus aureus ATCC 33592 assessed as fold reduction at 50 uM in presence of oxacillin (reference value: 128 ug/ml). Format: functional.
Series [35] concerns Staphylococcus aureus. Briefly: Antibacterial activity against methicillin-resistant Staphylococcus aureus ATCC 33592 assessed as enhancement factor at 50 uM in presence of oxacillin (reference value: 128 ug/ml). Type of series: functional.
Series [36] concerns Staphylococcus aureus. The series can be described thus: Antibacterial activity against methicillin-resistant Staphylococcus aureus BAA-2094 assessed as enhancement factor at 50 uM in presence of vancomycin (reference value: 2 ug/ml). Format: functional.
Series [37] concerns Staphylococcus aureus. The series can be described thus: Antibacterial activity against methicillin-resistant Staphylococcus aureus USA 300 assessed as fold reduction at 50 uM in presence of vancomycin. Format: functional.
The test system of series [38] is Staphylococcus aureus. Briefly: Antibacterial activity against vancomycin-intermediate resistant Staphylococcus aureus Mu50 assessed as fold reduction at 50 uM in presence of penicillin G. Type of series: functional.
The target of a further series is T2, Sensor protein VraS (Staphylococcus aureus (strain N315), UniProt Q99SZ7).
T2 sequence (Q99SZ7 whole entry): T1 sequence (whole entry)
Briefly: Inhibition of GST tagged VraS ATPase activity in vancomycin-intermediate resistant Staphylococcus aureus by kinase-coupled assay.

For series [39], the system named is Staphylococcus aureus. Briefly: Synergistic antibacterial activity against vancomycin-intermediate resistant Staphylococcus aureus Mu50 assessed as fractional inhibitory concentration index at >400 times MIC in presence of penicillin G by checkerboard assay. Type of series: functional.
Series [40] has as its system Staphylococcus aureus. The series can be described thus: Suppression of vancomycin-induced mecA gene transcription in vancomycin-intermediate resistant Staphylococcus aureus Mu50 assessed as decrease in mecA transcript level by RT-qPCR analysis. Format: functional, organism-based.

Active and inactive are the calls of the source. The rule behind the calls is not given here. Where only a bound is given, the exact number is not on record here.

What is called MIC is the least concentration at which growth counts as inhibited. By IC50 is commonly meant the concentration that inhibits the measured activity by half.

As for `CCSc1nc2ccc(NC(=O)NC(c3cc(C)ccn3)C3CC3)cc2o1` (stereo not given), the MIC was 4 µg/mL with Staphylococcus aureus [1]; 0.25 µg/mL with Staphylococcus aureus [5]; under 2 µg/mL in the series on Staphylococcus aureus [6]; 16 µg/mL in the series with Staphylococcus aureus [7]; 0.25 µg/mL with Staphylococcus aureus [9]; under 2 µg/mL with Staphylococcus aureus [12]. For the same compound, the MIC was under 2 µg/mL in the series on Staphylococcus aureus [14]; 0.5 µg/mL in the series with Staphylococcus aureus [18]; 128 µg/mL with Staphylococcus aureus [20]; under 0.25 µg/mL in the series with Staphylococcus aureus [22]; 0.5 µg/mL with Staphylococcus aureus [24]; 0.25 µg/mL with Staphylococcus aureus [25]. Besides, the MIC in the series on Staphylococcus aureus [28] is 16 µg/mL; in the series with Staphylococcus aureus [29] it was 8 µg/mL; with Staphylococcus aureus [31], under 0.25 µg/mL; in the series on Staphylococcus aureus [32], under 2 µg/mL; with Staphylococcus aureus [35], under 2 µg/mL; in the series with Staphylococcus aureus [36], 0.5 µg/mL. The result in the series with Staphylococcus aureus [2], in the series with Staphylococcus aureus [8], in the series with Staphylococcus aureus [10], in the series on Staphylococcus aureus [11], with Staphylococcus aureus [13] and in the series on Staphylococcus aureus [16] was Active. Besides, the outcome in the series on Staphylococcus aureus [23], with Staphylococcus aureus [30] and in the series on Staphylococcus aureus [40] was Active. Also, in series [3], the Activity worked out at 35%. For the same compound, the “fold change (FC)” value with Staphylococcus aureus [4] is 4; in the series with Staphylococcus aureus [21], about 4; in the series on Staphylococcus aureus [26] it was 32; in the series with Staphylococcus aureus [27], 16; in the series on Staphylococcus aureus [33] it was 4; with Staphylococcus aureus [34], 16. Besides, the “fold change (FC)” value came out at 2 in the series with Staphylococcus aureus [37] and 4 in the series with Staphylococcus aureus [38]. Further, in series [15], the IC50 at 24 h is over 100000 nM. The results for the “fractional inhibitory concentration index (FICI)” value with Staphylococcus aureus [17], in the series with Staphylococcus aureus [19] and in the series on Staphylococcus aureus [39] were under 0.12, “<=0.31” and “<=0.31”, respectively. The compound also came in with an IC50 at Sensor protein VraS of 940 nM.

As for `Cc1ccnc(C(NC(=O)Nc2ccc3nnn(C)c3c2)C2CC2)c1` (stereo not given), the MIC was determined as 4 µg/mL in the series with Staphylococcus aureus [9] and 256 µg/mL with Staphylococcus aureus [29].

For `Cc1ccnc(C(NC(=O)Nc2ccc3c(c2)OCC(=O)N3C)C2CC2)c1` (stereo not given), the MIC is 4 µg/mL with Staphylococcus aureus [9] and 256 µg/mL in the series on Staphylococcus aureus [29].
